# Reference: PMC8058733, “A pain killer without analgesic tolerance designed by co-targeting PSD-95-nNOS interaction and α2-containning GABAARs” (Theranostics, 2021)
# “Also recorded” adds a separate entry of the source.
# Legend:
# α5β3γ2 GABAARs = test: Potentiation of GABA-evoked currents, whole-cell patch-clamp in HEK293 cells transiently expressing recombinant GABAARs; assay type: cell-based
# locomotor activity = test: Open field test, locomotor activity; assay type: in vivo; conditions: mice, 1 h after injection, ZL006-05 60 mg/kg, i.v., diazepam 0.5 mg/kg
# Experimental: The locomotor activity was assessed by the open field test as described previously. The apparatus consisted of a large area composed of plastic, surrounded by walls that were 100 cm high. The floor was 50 × 50 cm for mice; the overall illumination was 25 lux. Each animal was gently placed in the center of the open field, and its behavior was videotaped. The distance the animals travelled was measured in a 5-min session using ANY-maze (Stoelting Co., IL, USA). After each trial, the plate was cleaned with 70% EtOH. No stressor was applied to the animals for at least 12 h before the test.
# α1β2γ2 GABAARs = target: T1, α1β2γ2 GABAARs (Homo sapiens, UniProt P14867+P18507+P47870); test: Potentiation of GABA-evoked currents, whole-cell patch-clamp in HEK293 cells transiently expressing recombinant GABAARs; assay type: cell-based; conditions: α1β2γ2
# T1 construct: Shanghai Genechem Co.,Ltd (γ2 plasmid); host or cells: HEK293
# T1 sequence (P14867 28-456): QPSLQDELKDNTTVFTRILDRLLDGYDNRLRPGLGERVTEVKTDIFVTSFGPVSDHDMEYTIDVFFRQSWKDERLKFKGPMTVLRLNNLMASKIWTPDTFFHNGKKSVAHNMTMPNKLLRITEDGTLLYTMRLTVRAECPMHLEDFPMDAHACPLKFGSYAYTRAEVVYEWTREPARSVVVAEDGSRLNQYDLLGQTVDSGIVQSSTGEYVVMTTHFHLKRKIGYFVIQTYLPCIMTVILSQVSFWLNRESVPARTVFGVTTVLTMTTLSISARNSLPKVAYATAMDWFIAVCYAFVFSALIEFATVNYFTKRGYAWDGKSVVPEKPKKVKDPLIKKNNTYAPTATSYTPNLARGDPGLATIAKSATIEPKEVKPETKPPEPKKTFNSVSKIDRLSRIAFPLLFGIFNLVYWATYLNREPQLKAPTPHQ
# T1 sequence (P47870 25-512 limits assumed): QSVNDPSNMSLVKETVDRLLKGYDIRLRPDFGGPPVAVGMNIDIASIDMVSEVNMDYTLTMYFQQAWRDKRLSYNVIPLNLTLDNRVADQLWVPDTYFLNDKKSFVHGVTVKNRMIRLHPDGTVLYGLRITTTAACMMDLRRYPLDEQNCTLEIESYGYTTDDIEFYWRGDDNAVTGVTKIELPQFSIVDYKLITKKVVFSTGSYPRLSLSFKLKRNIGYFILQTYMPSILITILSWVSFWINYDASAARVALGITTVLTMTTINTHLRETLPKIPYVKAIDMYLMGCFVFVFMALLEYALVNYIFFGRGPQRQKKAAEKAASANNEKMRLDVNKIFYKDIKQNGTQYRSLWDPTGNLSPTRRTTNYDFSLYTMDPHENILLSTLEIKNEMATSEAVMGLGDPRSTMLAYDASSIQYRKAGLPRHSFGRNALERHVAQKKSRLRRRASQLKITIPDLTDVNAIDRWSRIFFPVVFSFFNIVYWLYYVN
# T1 sequence (P18507 40-475): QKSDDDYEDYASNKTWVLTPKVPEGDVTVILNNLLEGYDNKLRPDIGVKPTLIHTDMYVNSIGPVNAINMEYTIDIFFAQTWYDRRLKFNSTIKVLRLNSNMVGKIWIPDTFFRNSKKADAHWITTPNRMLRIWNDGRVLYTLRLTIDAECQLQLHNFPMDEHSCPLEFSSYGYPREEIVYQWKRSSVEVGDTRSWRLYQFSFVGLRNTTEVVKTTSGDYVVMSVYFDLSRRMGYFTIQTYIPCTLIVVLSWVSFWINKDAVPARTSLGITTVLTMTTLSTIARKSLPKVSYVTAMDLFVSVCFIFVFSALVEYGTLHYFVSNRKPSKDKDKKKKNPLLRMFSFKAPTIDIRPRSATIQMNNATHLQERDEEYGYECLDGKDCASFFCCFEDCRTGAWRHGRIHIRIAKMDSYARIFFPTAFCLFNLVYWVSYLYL
# Experimental: (§1) The affinities of drugs for α1, α2, α3 and α5 subunits were studied in the HEK293 cells (from FuHeng Biology, Shanghai, China) transiently expressing recombinant GABAARs (α1β2γ2, α2β3γ2, α3β3γ2 and α5β2γ2) as described previously. Briefly, the HEK293 cells were cultured in MEM medium supplemented with 10% FBS (fetal bovine serum, Gibico), 1% L-glutamine (Gibco) and 1% mycillin (Gibco). Before transfection, the cells were subcultured onto a 3.5cm dish at the ratio of 1:2. Then, the plasmids of α1/α2/α3/α5 (Origene), β2/β3 (Origene) and γ2 (Shanghai Genechem Co.,Ltd ) (5μg total DNA, ratio 1:1:2) were transfected using Fugene®HD transfection reagent (Promega). The γ2 subunit contained GFP from IRES (internal ribosomal entry site) and was used as a marker of the successful transfection. Cells were used for electrophysiology recording 18-36 hours after transfection.
# (§2) Electrophysiology recordings from HEK293 cells were performed as described previously. Briefly, whole-cell patch-clamp recordings of GABA-evoked currents were made at 30 °C with the holding potential of -60 mV. The internal solution (solution in recording electrodes) contained (in mM): 120 CsCl, 10 EGTA, 10 HEPES, 4 MgCl2, 0.5 GTP, 2 ATP and pH was adjusted to 7.4 with CsOH and the external solution contained (in mM): 150 NaCl, 10 KCl, 2 CaCl2, 1 MgCl, 10 HEPES, 10 Glucose and pH was adjusted to 7.4 with NaOH. ACSF was bubbled continuously with carbogen (95%O2 and 5%CO2). For the recording of GABA-evoked currents, the slides were transferred to a recording chamber, which was perfused with ACSF at a rate of 4 ml/min. The cells were viewed under upright microscopy (Olympus), and GFP-positive cells were selected to record the currents. The interval time between each different dose of GABA was controlled, 3 to 5 minutes to avoid the desensitization of GABAARs.
# α2β3γ2 GABAARs = target: T2, α2β3γ2 GABAARs (Homo sapiens, UniProt P18507+P28472+P47869); test: as above; assay type: cell-based; conditions: α2β3γ2
# T2 construct: Shanghai Genechem Co.,Ltd (γ2 plasmid); host or cells: HEK293
# T2 sequence (P47869 29-451): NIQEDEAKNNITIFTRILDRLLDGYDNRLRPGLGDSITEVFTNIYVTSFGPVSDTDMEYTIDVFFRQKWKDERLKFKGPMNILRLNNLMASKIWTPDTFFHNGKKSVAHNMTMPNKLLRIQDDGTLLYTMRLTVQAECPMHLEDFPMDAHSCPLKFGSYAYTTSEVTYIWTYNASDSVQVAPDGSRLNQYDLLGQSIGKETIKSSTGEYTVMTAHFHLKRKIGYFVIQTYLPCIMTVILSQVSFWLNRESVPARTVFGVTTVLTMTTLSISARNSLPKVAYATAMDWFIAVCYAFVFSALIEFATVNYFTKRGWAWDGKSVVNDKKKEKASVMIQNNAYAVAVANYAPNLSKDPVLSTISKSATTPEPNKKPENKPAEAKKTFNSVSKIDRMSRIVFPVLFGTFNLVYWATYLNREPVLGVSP
# T2 sequence (P28472 26-473): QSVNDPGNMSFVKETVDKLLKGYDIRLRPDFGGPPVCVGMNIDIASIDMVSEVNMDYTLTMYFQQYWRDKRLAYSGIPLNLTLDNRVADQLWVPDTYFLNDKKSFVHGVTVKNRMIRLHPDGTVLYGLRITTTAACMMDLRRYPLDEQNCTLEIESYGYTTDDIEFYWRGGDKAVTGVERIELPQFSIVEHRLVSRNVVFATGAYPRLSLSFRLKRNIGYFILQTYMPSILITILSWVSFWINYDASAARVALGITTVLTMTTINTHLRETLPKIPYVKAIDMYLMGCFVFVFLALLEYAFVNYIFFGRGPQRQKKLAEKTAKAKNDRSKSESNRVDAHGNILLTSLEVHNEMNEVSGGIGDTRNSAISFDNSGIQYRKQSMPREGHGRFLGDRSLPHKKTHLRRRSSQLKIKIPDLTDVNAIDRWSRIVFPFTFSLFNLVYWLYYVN
# T2 sequence (P18507 40-475): as the sequence (P18507 40-475) above
# Experimental: as §1, §2
# α3β3γ2 GABAARs = target: T3, α3β3γ2 GABAARs (Homo sapiens, UniProt P18507+P28472+P34903); test: as above; assay type: cell-based; conditions: α3β3γ2
# T3 construct: Shanghai Genechem Co.,Ltd (γ2 plasmid); host or cells: HEK293
# T3 sequence (P34903 29-492): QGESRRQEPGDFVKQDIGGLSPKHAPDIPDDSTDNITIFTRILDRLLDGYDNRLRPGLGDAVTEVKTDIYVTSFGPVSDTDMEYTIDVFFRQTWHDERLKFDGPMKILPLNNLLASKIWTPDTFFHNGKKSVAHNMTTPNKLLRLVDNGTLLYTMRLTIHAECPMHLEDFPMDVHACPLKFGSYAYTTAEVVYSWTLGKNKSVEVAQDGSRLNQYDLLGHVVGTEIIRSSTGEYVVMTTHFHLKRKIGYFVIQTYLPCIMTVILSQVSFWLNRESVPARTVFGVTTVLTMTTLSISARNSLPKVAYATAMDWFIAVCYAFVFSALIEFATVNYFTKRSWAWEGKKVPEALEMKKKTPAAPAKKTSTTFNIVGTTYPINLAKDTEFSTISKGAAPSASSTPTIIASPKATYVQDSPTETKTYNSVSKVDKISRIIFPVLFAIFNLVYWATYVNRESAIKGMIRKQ
# T3 sequence (P28472 26-473): as the sequence (P28472 26-473) above
# T3 sequence (P18507 40-475): as the sequence (P18507 40-475) above
# Experimental: as §1, §2
structure (smiles),measurement,setting,value
CC1(C)C2CCC1(C)C(OC(=O)c1ccc(NCc3cc(Cl)cc(Cl)c3O)cc1O)C2 (centres unmarked) [ZL006-05],Effect on α5GABAAR (in words),α5β3γ2 GABAARs,low efficacy on α3GABAAR and α5GABAAR
same,"Locomotor activity, distance travelled during 5 min",locomotor activity,had no effect
same,Effect on GABA-evoked currents of α1-containing GABAAR (in words),α1β2γ2 GABAARs,does not potentiate α1GABAAR
same,Effect on α2-containing GABAAR (in words),α2β3γ2 GABAARs,very high affinity to α2-containing GABAAR; also recorded: very high efficacy and potency on α2GABAARs
same,Effect on α3GABAAR (in words),α3β3γ2 GABAARs,low efficacy on α3GABAAR
